Assay results reported in ChEMBL document CHEMBL1127888, “Synthesis and biological activity of intercalator substituted bile steroids” (Bioorg Med Chem Lett, 1994).

Key:
L1210 [1] = assay: Inhibitory activity against mouse leukemia L1210 cells; Range is 20 to >50; format: functional, cell-based
L1210 [2] = assay: Inhibitory activity against mouse leukemia L1210 cells; format: functional, cell-based

Row | SMILES | IC50 (L1210 [1]) [µM] | IC50 (L1210 [2]) [µM]
1 | CC(CCCOC(=O)c1ccc2ccccc2n1)C1CC[C@H]2[C@@H]3[C@H](O)CC4C[C@H](OC(=O)c5ccc6ccccc6n5)CC[C@]4(C)[C@H]3C[C@H](O)[C@]12C (stereo not given in full) | > 50 | 
2 | CC(CCCOC(=O)c1cnc2ccccc2n1)C1CC[C@H]2[C@@H]3[C@H](O)CC4C[C@H](OC(=O)c5cnc6ccccc6n5)CC[C@]4(C)[C@H]3C[C@H](O)[C@]12C (stereo not given in full) | > 50 | 
3 | CC(CCCOC(=O)c1ccc2ccccc2n1)C1CC[C@H]2[C@@H]3[C@H](O)CC4C[C@H](OC(=O)c5cnc6ccccc6n5)CC[C@]4(C)[C@H]3C[C@H](O)[C@]12C (stereo not given in full) | > 50 | 
4 | CC(CCCOC(=O)c1cnc2ccccc2c1)C1CC[C@H]2[C@@H]3[C@H](O)CC4C[C@H](OC(=O)c5cnc6ccccc6c5)CC[C@]4(C)[C@H]3C[C@H](O)[C@]12C (stereo not given in full) | > 50 | 
5 | CC(CCCOC(=O)c1cnc2ccccc2c1)C1CC[C@H]2[C@@H]3[C@H](O)CC4C[C@H](O)CC[C@]4(C)[C@H]3C[C@H](O)[C@]12C (stereo not given in full) |  | 4.8
